Experimental data as given in US10577360B2, “Arylamide derivatives having multimodal activity against pain” (ESTEVE PHARMACEUTICALS, S.A., priority 2016, dated 2020).
Read-outs that look alike come from different tables or passages of the source.

Molecular target: Human α2δ-1 subunit of Cav2.2 calcium channel (Homo sapiens (Human), UniProt P54289)
Assay: Human α2δ-1 subunit of Cav2.2 calcium channel assay ([3H]-Gabapentin binding)
[1] = [3H]-Gabapentin binding, read-out: α2δ − 1 (Ki)

Human α2δ-1 subunit of Cav2.2 calcium channel, sequence (P54289 25-1103): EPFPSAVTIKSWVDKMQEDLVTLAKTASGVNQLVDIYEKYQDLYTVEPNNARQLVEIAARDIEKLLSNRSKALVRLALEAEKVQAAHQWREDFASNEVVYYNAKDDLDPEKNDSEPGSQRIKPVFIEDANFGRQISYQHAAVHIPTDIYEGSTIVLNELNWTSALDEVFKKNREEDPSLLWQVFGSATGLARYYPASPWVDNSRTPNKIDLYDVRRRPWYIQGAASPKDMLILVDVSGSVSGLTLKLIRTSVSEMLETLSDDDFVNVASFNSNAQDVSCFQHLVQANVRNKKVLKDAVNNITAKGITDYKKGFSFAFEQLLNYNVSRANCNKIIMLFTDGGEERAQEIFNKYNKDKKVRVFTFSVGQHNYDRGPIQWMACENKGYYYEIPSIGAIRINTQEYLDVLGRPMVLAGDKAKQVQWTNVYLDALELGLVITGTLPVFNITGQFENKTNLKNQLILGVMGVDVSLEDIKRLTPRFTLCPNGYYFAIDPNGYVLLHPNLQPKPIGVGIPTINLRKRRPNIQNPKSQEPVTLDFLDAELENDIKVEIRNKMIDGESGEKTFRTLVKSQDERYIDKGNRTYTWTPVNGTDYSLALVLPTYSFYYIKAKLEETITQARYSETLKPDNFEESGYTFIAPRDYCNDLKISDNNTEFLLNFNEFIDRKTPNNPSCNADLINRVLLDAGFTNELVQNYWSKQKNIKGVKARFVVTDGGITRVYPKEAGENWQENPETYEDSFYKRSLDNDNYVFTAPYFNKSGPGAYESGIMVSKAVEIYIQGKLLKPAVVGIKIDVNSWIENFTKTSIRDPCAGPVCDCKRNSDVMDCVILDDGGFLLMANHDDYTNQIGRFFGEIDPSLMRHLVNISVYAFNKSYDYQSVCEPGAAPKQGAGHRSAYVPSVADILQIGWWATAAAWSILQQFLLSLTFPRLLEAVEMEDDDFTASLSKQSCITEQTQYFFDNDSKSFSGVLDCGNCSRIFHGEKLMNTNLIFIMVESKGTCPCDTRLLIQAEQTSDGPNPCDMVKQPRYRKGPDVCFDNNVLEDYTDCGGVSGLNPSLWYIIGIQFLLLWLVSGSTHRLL

| SMILES | Ki [µM] | Ki [1] [µM] | further results |
| --- | --- | --- | --- |
| CN1CCCC(N(C(=O)c2cccs2)c2ccn(-c3ccccc3)n2)CC1 (stereo not drawn) [Example 39, N-(1-Methylazepan-4-yl)-N-(1-phenyl-1H-pyrazol-3-yl)thiophene-2-carboxamide] | 0.1 to 0.5 | – | – |
| O=C(c1cccs1)N(c1ccn(-c2ccccc2)n1)C1CCCNC1 (stereo not drawn) [Example 53, N-(1-Phenyl-1H-pyrazol-3-yl)-N-(piperidin-3-yl)thiophene-2-carboxamide] | 0.5 to 5 | – | – |
| O=C(c1cccs1)N(CCNCc1ccccc1)c1ccn(-c2ccccc2)n1 [Example 55, N-[2-(Benzylamino)ethyl]-N-(1-phenyl-1H-pyrazol-3-yl)thiophene-2-carboxamide] | 0.5 to 5 | – | – |
| O=C(c1cccs1)N(CCCNCc1ccccc1)c1ccn(-c2ccccc2)n1 [Example 56, N-[3-(Benzylamino)propyl]-N-(1-phenyl-1H-pyrazol-3-yl)thiophene-2-carboxamide] | 0.5 to 5 | – | – |
| CNCCN(C(=O)c1cccs1)c1ccn(-c2ccccc2)n1 [Example 57, N-[2-(Methylamino)ethyl]-N-(1-phenyl-1H-pyrazol-3-yl)thiophene-2-carboxamide] | 0.5 to 5 | – | – |
| CN(CCN(C(=O)c1cccs1)c1ccn(-c2ccccc2)n1)Cc1ccccc1 [Example 61, N-{2-[Benzyl(methyl)amino]ethyl}-N-(1-phenyl-1H-pyrazol-3-yl)thiophene-2-carboxamide] | 0.5 to 5 | – | – |
| CN(CCCN(C(=O)c1cccs1)c1ccn(-c2ccccc2)n1)Cc1ccccc1 [Example 62, N-{3-[Benzyl(methyl)amino]propyl}-N-(1-phenyl-1H-pyrazol-3-yl)thiophene-2-carboxamide] | 0.5 to 5 | – | – |
| CCN(C)CCN(C(=O)c1cccs1)c1ccn(-c2ccccc2)n1 [Example 63] | 0.5 to 5 | – | – |
| CN(CCN(C(=O)c1cccs1)c1ccn(-c2ccccc2)n1)Cc1ccncc1 [Example 64, N-{2-[Methyl(pyridin-4-ylmethyl)amino]ethyl}-N-(1-phenyl-1H-pyrazol-3-yl)thiophene-2-carboxamide] | – | > 5 | – |
| CN(CCN(C(=O)c1cccs1)c1ccn(-c2ccccc2)n1)Cc1cccnc1 [Example 65] | – | 0.5 to 5 | – |
| CN1CCCC(N(C(=O)c2cccs2)c2ccn(-c3ccccc3)n2)C1 (stereo not drawn) [Example 67, N-(1-Methylpiperidin-3-yl)-N-(1-phenyl-1H-pyrazol-3-yl)thiophene-2-carboxamide] | – | – | Ki (read-out: α2δ − 1 (Ki)): > 5 µM |
| CCNCCN(C(=O)c1cccs1)c1ccn(-c2ccccc2)n1 [Example 68, N-[2-(Ethylamino)ethyl]-N-(1-phenyl-1H-pyrazol-3-yl)thiophene-2-carboxamide] | 0.5 to 5 | – | – |
| Cc1nnc(-c2cccc(-n3ccc(N(CCN(C)Cc4ccccc4)C(=O)c4cccs4)n3)c2)o1 [Example 69, N-{2-[Benzyl(methyl)amino]ethyl}-N-{1-[3-(5-methyl-1,3,4-oxadiazol-2-yl)phenyl]-1H-pyrazol-3-yl}thiophene-2-carboxamide] | 0.1 to 0.5 | – | – |
| CN(C)C1CCC(N(C(=O)c2cccs2)c2ccn(-c3ccccc3)n2)CC1 (stereo not drawn) [Example 127, N-[4-(Dimethylamino)cyclohexyl]-N-(1-phenyl-1H-pyrazol-3-yl)thiophene-2-carboxamide] | – | > 5 | – |
| CN(Cc1ccccc1)C1CCC(N(C(=O)c2cccs2)c2ccn(-c3ccccc3)n2)CC1 (stereo not drawn) [Example 128, N-{4-[Benzyl(methyl)amino]cyclohexyl}-N-(1-phenyl-1H-pyrazol-3-yl)thiophene-2-carboxamide] | – | > 5 | – |
| Cc1nnc(-c2cccc(-n3ccc(N(C(=O)c4cccs4)[C@H]4CC[C@H](N(C)C)CC4)n3)c2)o1 [Example 149, N-[(1r,4r)-4-(Dimethylamino)cyclohexyl]-N-{1-[3-(5-methyl-1,3,4-oxadiazol-2-yl)phenyl]-1H-pyrazol-3-yl}thiophene-2-carboxamide] | – | > 5 | – |
| Cc1nnc(-c2cccc(-n3ccc(N(C(=O)c4cccc(O)c4)[C@H]4CC[C@H](N(C)C)CC4)n3)c2)o1 [Example 150, N-[(1r,4r)-4-(Dimethylamino)cyclohexyl]-3-hydroxy-N-{1-[3-(5-methyl-1,3,4-oxadiazol-2-yl)phenyl]-1H-pyrazol-3-yl}benzamide] | – | > 5 | – |
| Cc1nnc(-c2cccc(-n3ccc(N(C(=O)c4cccs4)[C@H]4CC[C@H](N(C)Cc5ccccc5)CC4)n3)c2)o1 [Example 151, N-{(1r,4r)-4-[Benzyl(methyl)amino]cyclohexyl}-N-{1-[3-(5-methyl-1,3,4-oxadiazol-2-yl)phenyl]-1H-pyrazol-3-yl}thiophene-2-carboxamide] | – | > 5 | – |
| Cc1nnc(-c2cccc(-n3ccc(N(C(=O)c4cccs4)[C@H]4CC[C@@H](N(C)Cc5ccccc5)CC4)n3)c2)o1 [Example 152, N-{(1s,4s)-4-[Benzyl(methyl)amino]cyclohexyl}-N-{1-[3-(5-methyl-1,3,4-oxadiazol-2-yl)phenyl]-1H-pyrazol-3-yl}thiophene-2-carboxamide] | – | > 5 | – |
| Cc1nnc(-c2cccc(-n3ccc(N(C(=O)c4cccc(O)c4)[C@H]4CC[C@H](N(C)Cc5ccccc5)CC4)n3)c2)o1 [Example 153, N-{(1r,4r)-4-[Benzyl(methyl)amino]cyclohexyl}-3-hydroxy-N-{1-[3-(5-methyl-1,3,4-oxadiazol-2-yl)phenyl]-1H-pyrazol-3-yl}benzamide] | – | > 5 | – |
| Cc1nnc(-c2cccc(-n3ccc(N(C(=O)c4cccc(O)c4)[C@H]4CC[C@@H](N(C)Cc5ccccc5)CC4)n3)c2)o1 [Example 154, N-{(1s,4s)-4-[Benzyl(methyl)amino]cyclohexyl}-3-hydroxy-N-{1-[3-(5-methyl-1,3,4-oxadiazol-2-yl)phenyl]-1H-pyrazol-3-yl}benzamide] | – | > 5 | – |
